Data from patent publication US6737439B2, “Aromatase inhibitors from Broussonetia papyrifera” (The Board of Trustees of the University of Illinois, priority 2001, dated 2004).
Several values for one entry are separate records, joined by “and”; a condition that tells them apart may be missing. Identical values can stand only once. Entries after “also recorded” stand apart in the source; their conditions may differ. Like-named read-outs stand apart in the source and are kept apart here.

Columns and labels:
aromatase = target: T1, aromatase (Homo sapiens, UniProt P11511); assay: Assay for inhibition of aromatase activity (human placental microsomes, [1,2-3H]androstenedione); format: biochemical; details: for aromatase inhibition, result in words: in vitro aromatase assay; for fold greater aromatase inhibition potency than aminoglutethimide: versus positive control aminoglutethimide
T1 construct: Reaction mixtures were prepared in glass tubes containing 4 μL of placental microsomes (5 mg/mL); from tissue; host or cells: human term placenta (microsomal fraction)
T1 sequence (P11511 1-503): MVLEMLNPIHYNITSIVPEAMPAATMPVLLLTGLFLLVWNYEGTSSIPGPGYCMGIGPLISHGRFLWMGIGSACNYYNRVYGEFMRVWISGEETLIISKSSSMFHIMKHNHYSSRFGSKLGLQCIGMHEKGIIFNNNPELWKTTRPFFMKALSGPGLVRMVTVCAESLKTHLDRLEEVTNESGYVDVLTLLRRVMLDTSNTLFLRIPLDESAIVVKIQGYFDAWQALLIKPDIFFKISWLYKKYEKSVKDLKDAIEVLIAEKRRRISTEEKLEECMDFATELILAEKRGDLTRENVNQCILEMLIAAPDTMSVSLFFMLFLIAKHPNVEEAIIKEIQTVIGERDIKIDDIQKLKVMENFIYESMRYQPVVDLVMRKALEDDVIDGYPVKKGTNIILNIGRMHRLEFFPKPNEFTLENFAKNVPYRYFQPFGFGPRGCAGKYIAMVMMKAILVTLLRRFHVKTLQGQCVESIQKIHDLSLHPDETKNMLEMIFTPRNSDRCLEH
Experimental: Assay for Inhibition of Aromatase Activity. Microsomes were prepared from freshly delivered human term placentas using 0.05 M potassium phosphate buffer, pH 7.4, and stored frozen in plastic tubes at −70° C. […] After a 4 min incubation at 37° C., the reaction was terminated by adding 3 mL of chloroform. The tubes were centrifuged at 2,000×g for 10 min and then 300 μL of the aqueous phases were transferred to tubes containing 300 μL of charcoal/dextrin solution (5%). Following another 10 min centrifugation at 2,000×g, supernatant fractions (500 μL) were used for the determination of radioactivity. Inhibition of aromatase activity was calculated using the following equation: [formula]
Samples were tested in duplicate and the mean values were used to prepare dose-response curves. Results were typically expressed as IC50 values.

[1] = tested on: alveolar lesions in a mouse mammary organ culture model; assay: Mouse mammary organ culture model, formation of alveolar lesions; format: cell-based; details: tested at 100 ng/ml
[2] = tested on: tumors in Sprague-Dawley rats; details: 400 mg/kg diet; cited from earlier work
[3] = read-out: IC50, inactive in the aromatase inhibition assay at the dose levels used
[4] = human placental microsomes, read-out: IC50 (μM), aromatase inhibitory activity

Row | Compound | aromatase inhibition, result in words (aromatase) | IC50 (aromatase; [4]) | further results
1 | O=c1ccc2c(O)cc(O)cc2o1 [5,7-dihydrocoumarin, 5,7-Dihydroxycoumarin] |  |  | IC50 (aromatase; [3]): > 225 µM
2 | O=C1c2c(O)cc(O)cc2O[C@H](c2ccc(O)cc2O)[C@H]1O [(2R,3R)-5,7,2′,4′-tetrahydroxyflavanonol, (2R,3R)-5,7,2′,4′-Tetrahydroxyflavanonol] | did not show potent aromatase inhibition |  | 
3 | O=C1c2c(O)cc(O)cc2O[C@H](c2ccc(O)cc2)[C@H]1O [(2R,3R)-katuranin, (2R,3R)-Katuranin] | did not show potent aromatase inhibition |  | 
4 | CC(C)=CCc1cc([C@H]2Oc3c(CC=C(C)C)c(O)cc(O)c3C(=O)[C@@H]2O)ccc1O [(2R,3R)-lespedezaflavanone C, (2R,3R)-Lespedezaflavanone C] | did not show potent aromatase inhibition |  | 
5 | Oc1ccc([C@@H]2CCc3ccc(O)cc3O2)cc1 [(2S)-7,4′-dihydroxyflavan, (2S)-7,4′-Dihydroxyflavan] | did not show potent aromatase inhibition |  | 
6 | CC(C)=CCC/C(C)=C/Cc1c(-c2ccc(O)cc2O)oc2cc(O)cc(O)c2c1=O [Compound 1, 5,7,2′,4′-Tetrahydroxy-3-geranylflavone] | active | 24 µM | melting point: 94 to 95 °C
7 | CC(C)=CCC/C(C)=C/Cc1c(O)cc2oc(-c3ccc(O)c(O)c3)c(O)c(=O)c2c1O [Compound 2, 5,7,3′,4′-Tetrahydroxy-6-geranylflavonol] | not active; also recorded: inactive |  | 
8 | COc1c(-c2ccc(O)c(O)c2)oc2cc(O)c(C/C=C(\C)CCC=C(C)C)c(O)c2c1=O [Compound 3, 5,7,3′,4′-Tetrahydroxy-3-methoxy-6-geranylflavone] | not active; also recorded: inactive |  | melting point: 98 to 99 °C
9 | CC(C)=CCc1cc([C@@H]2CCc3ccc(O)cc3O2)ccc1O [Compound 4, (2S)-7,4′-Dihydroxy-3′-prenylflavan] | did not show potent aromatase inhibition; also recorded: inactive |  | 
10 | Oc1ccc(CCCc2ccc(O)cc2O)cc1 [Compound 5, 1-(2,4-Dihydroxyphenyl)-3-(4-hydroxyphenyl)propane] | inactive |  | melting point: 92 to 93 °C
11 | CC(C)=CCc1c(O)ccc(CCCc2ccc(O)cc2)c1O [Compound 6, 1-(2,4-Dihydroxy-3-prenylphenyl)-3-(4-hydroxyphenyl)propane] | inactive |  | melting point: 115 to 116 °C
12 | COc1cc(O)ccc1CCCc1ccc(O)c(CC=C(C)C)c1 [Compound 7, 1-(4-Hydroxy-2-methoxyphenyl)-3-(4-hydroxy-3-prenylphenyl)propane] | inactive |  | melting point: 85 to 86 °C
13 | COc1cc(/C=C/C(=O)OC/C(C)=C/Cc2c(O)ccc(C(=O)/C=C/c3ccc(O)cc3O)c2O)ccc1O [Compound 8, 3′-(γ-hydroxymethyl-(E)-γ-methylallyl)-2,4,2′,4′-tetrahydroxychalcone 11′-O-ferulate] | active | 7.1 µM | 
14 | C/C(=C\Cc1c(O)ccc(C(=O)/C=C/c2ccc(O)cc2O)c1O)COC(=O)/C=C/c1ccc(O)cc1 [Compound 9, 3′-[γ-Hydroxymethyl-(E)-γ-methylallyl]-2,4,2′,4′-tetrahydroxychalcone 11′-O-coumarate] | active | 0.5 µM and 0.52 µM | fold greater aromatase inhibition potency than aminoglutethimide (aromatase): approximately ten
15 | CC(C)=CCc1c(O)cc(O)cc1-c1cc2ccc(O)cc2o1 [Compound 10, Demethylmoracin I] | did not show potent aromatase inhibition; also recorded: active | 31.1 µM | 
16 | CC(C)(O)C1Cc2c(ccc3c2O[C@H](c2ccc(O)cc2O)CC3=O)O1 (stereo partly drawn) [Compound 11, 2S-2′,4′-Dihydroxy-2″-(1-hydroxy-1-methylethyl)-dihydrofuro[2,3-h]flavanone] | active | ~0.1 µM and 0.11 µM | fold greater aromatase inhibition potency than aminoglutethimide (aromatase): approximately 60 fold; inhibition at 0.1 µg/mL [1]: 50%
17 | COc1ccc(CCCc2ccc(O)cc2)c(O)c1 [Compound 18, Broussonin A] | did not show potent aromatase inhibition | 30 µM | 
18 | Aminoglutethimide |  |  | MNU-induced tumor incidence [2]: effectively reduces
19 | Broussonin F | did not show potent aromatase inhibition |  | 

More lines, main results first:

Row | aromatase inhibition, result in words (aromatase) | IC50 (aromatase; [4]) | Compound | further results
20 |  | 2.2 µM | O=C1C[C@@H](c2ccc(O)cc2O)Oc2cc(O)cc(O)c21 [Compound 14, (2S)-5,7,2′,4′-Tetrahydroxyflavanone] | 
21 |  | 9.7 µM | CC(C)=CCc1cc(-c2oc3c(CC=C(C)C)c(O)cc(O)c3c(=O)c2O)ccc1O [Compound 16, Broussoflavonol F] | 
22 |  | 4.6 µM | CC(C)=CCc1c(O)ccc(C(=O)/C=C/c2ccc(O)cc2O)c1O [Compound 19, 2,4,2′,4′-Tetrahydroxy-3′-prenylchalcone] | 
23 | did not show potent aromatase inhibition | 31.1 µM | CC(C)=CCc1cc2cc(-c3cc(O)cc(O)c3)oc2cc1O [Compound 20, Moracin N] | 
24 |  | 7.5 µM | CC1=C[C@@H]2c3c(O)cc(-c4cc5ccc(O)cc5o4)cc3O[C@]3(c4ccc(O)cc4O)Oc4cc(O)ccc4[C@@H](C1)[C@H]23 [Compound 21, Albanol A] | 
25 | did not show potent aromatase inhibition |  | COc1ccc2c(c1CC=C(C)C)O[C@H](c1ccc(O)cc1O)CC2 [Compound 22, (2S)-2′,4′-Dihydroxy-7-methoxy-8-prenylflavan] | IC50 (aromatase; [3]): > 118 µM; melting point: 95 to 96 °C
26 | not active |  | CC(C)=CCc1cc2c(cc1O)O[C@H](c1ccc(O)cc1)CC2=O [bavachin, Bavachin] | 
27 | did not show potent aromatase inhibition |  | COc1cc(O)ccc1CCCc1ccc(O)cc1 [broussonin B, Broussonin B] | 
28 | did not show potent aromatase inhibition |  | COc1ccc(CCCc2ccc(OC)c(O)c2)c(O)c1 [broussonin E, Broussonin E] | 
29 | not active |  | CC(C)=CCc1c(O)cc2oc(-c3ccc(O)c(O)c3)c(O)c(=O)c2c1O [gancaonin P, Gancaonin P] | 
30 | did not show potent aromatase inhibition |  | CC1(C)C=Cc2c(O)cc(-c3cc4ccc(O)cc4o3)cc2O1 [moracin D, Moracin D] | 
31 | did not show potent aromatase inhibition |  | COc1cc(O)cc(-c2cc3ccc(O)cc3o2)c1CC=C(C)C [moracin I, Moracin I] | 
32 | did not show potent aromatase inhibition |  | Oc1cc(O)cc(-c2cc3ccc(O)cc3o2)c1 [moracin M, Moracin M] | 
33 |  | 3.4 µM | (2S)-Euchrenone a7 [Compound 15] | 
